The text below walks through data of patent US5795899A, “Soluble salts of 4-amino-2-(4,4-dimethylimidazolidin-2-on-1-yl) pyrimidine-5-carboxylic acid N-methyl-N-(3-trifluoromethylphenyl)-amide, a process for the preparation thereof, the use thereof as pharmaceuticals and starting materials” (Hoechst Aktiengesellschaft, priority 1992, dated 1998).

Structures are written as SMILES. In brackets after ≈: the same amount, converted by molar mass. Like-named read-outs stand apart in the source and are kept apart here.

One data set in a line: physchem. To be noted: water.
For a further data set, the system named is hypercholesterolemia. Kind of data set: Effect on experimental hypercholesterolemia in male rats. In kind it is in vivo, male Wistar rats, HOE: WISKf (SPF 71) strain. To be noted: 100 mg/kg/day, oral, 7 days. The procedure:
Groups of in each case 10 male rats of the HOE: WISKf (SPF 71) strain with a weight of about 200 g received each day in the morning a cocktail which contained the substances required to generate a combined dietetic/hormonal hypercholesterolemia, and in each case the product to be tested for the inhibition of hypercholesterolemia, in appropriate dosage. The cocktail was composed of a mixture of 100 g of cholesterol, 30 g of propylthiouracil and 100 g of cholic acid in 1 l of peanut oil. 1 ml of this/100 g of body weight was administered by gavage. The products to be tested were suspended in this cocktail in a concentration such that it contained the daily dose indicated in Table 4 on administration of the amount mentioned above. The other procedure for the treatment and the analysis of the individual parameters were carried out as indicated under 4.1.
Clofibrate was used as comparison product. The results are compiled in Table 4, wherein a) indicates the absolute values and b) indicates the percentage changes.

Another data set has as its system serum lipoproteins. Kind of data set: Effect on serum lipoproteins of normolipemic male rats in a subchronic test. To be noted: 100 mg/kg/day, oral, 7 days. The class given is in vivo, male Wistar rats, HOE: WISKf (SPF 71) strain. On the procedure: 4.1 Effect on serum lipoproteins of normolipemic male rats in a subchronic test
Groups of in each case 10 male rats of the HOE: WISKf (SPF 71) strain with an initial weight above 180 g received once a day (in the morning) the test product or the comparison product in 1% aqueous ®Tylose MH 300 solution by stomach tube (0.5 ml/100 g of body weight); the control group in each case received only the vehicle. The last (7th) administration took place 24 hours before removal of blood and sacrifice. There was free access to food and water during the test. The food was withdrawn 24 hours before the removal of blood.
The serum from all 10 rats in a group was pooled for the analysis of the serum lipoproteins. The serum lipoproteins were separated with a preparative ultracentrifuge (KONTRON TGA 65, Rotor BECKMAN 50.4 Ti).
The following conditions specified by Koga, S., Horwitz, D. L., and Scanu, A. M., Journal of Lipid Research 10, 577 (1969) and Havel, R. J., Eder, H. A., and Bragdon, H. H., J. Clin. Invest. 34, 1345 (1955) were used to separate VLDL, LDL and HDL:
Test kits from BOEHRINGER/Mannheim were used for the enzymatic determination of cholesterol and triglycerides in the separated lipoprotein fractions (compare Siedel, J., Schlumberger, H., Klose, S., Ziegenhorn, J. and Wahlefeld, A. W., J. Clin. Chem. Clin. Biochem. 19, 838 (1981) and Wahlefeld, A. W., in: H. O. Bergmeier: Methoden der enzymatischen Analyse (Methods of Enzymatic Analysis), 2nd edition, Volume II, Verlag Chemie 1974, page 1878). The proteins were determined by the method of Lowry (Lowry, O. H., Roseborough, N. J., Farr, A. L. and R. J. Randell, J. Biol. Chem. 193, 265 (1951)).
Clofibrate was used as comparison product.

Data set [1] deals with carbohydrate-induced hypertriglyceridemia. Kind of data set: Inhibition of carbohydrate-induced hypertriglyceridemia. The class given is in vivo, male Sprague-Dawley rats. The procedure: Groups of in each case 10 male Sprague-Dawley rats (supplied by the breeder Mollegard with a weight of 250-280 g) received on each of 4 consecutive days one administration of the compound dissolved in PEG 400 by gavage. In addition, after the 3rd administration and 8 and 24 hours later they received 2.5 g of fructose/kg, likewise by gavage. Moreover, after the 3rd administration of product, 50% strength fructose solution was offered to them as drinking water ad libitum, and the food was withdrawn. Retroorbital removal of blood, from which the serum was obtained for the triglyceride determination and VLDL preparation in the ultracentrifuge (flotation at d=1.006), took place 3 hours after the last product/fructose administration. The food received by the animals from 1 week before the 1st administration and up to the 3rd administration was a diet with 40% casein in the feed meal.
The animals develop, as a result of this treatment, a hypertriglyceridemia which approximately corresponds to Fredrickson phenotype IV in humans. The serum triglycerides of the normal animals increased from 0.54 to 1.1 mmol/l, and the VLDL triglycerides from 0.67 to 1.81.

Data set [2] deals with mouse leukemia cells, L 1210. Kind of data set: MTT assay, inhibition of cell proliferation, L1210. The class given is cell-based. To be noted: 72 hours incubation. On the procedure:
(§1) The reduced inhibitory effect on cell proliferation was tested on exponentially growing animal (mouse leukemia cells, L 1210) and human (bronchial carcinoma cells, A 549; colon carcinoma cells, HT 29) tumor cells. This entailed the tumor cells being incubated in RPMI standard medium with various concentrations of the test substances for 72 hours. Cell incubations only in fresh medium served as control. Incubations were set up in quadruplet. […] After incubation for a further 7 to 24 hours, the cell supernatant was carefully removed and the formazan dye in the cells was solubilized by adding DMSO and measured quantitatively by photometry at 492 nm. The ratio of the extinction of the substance incubations to the control incubation was quantified. The coefficient of variation in each incubation series was less than 15%. The following Table 6 indicates the IC50 values (IC50 [μg/ml] is the concentration of the test substance per ml which is necessary for 50% inhibition) from these investigations.

The test system of data set [3] is bronchial carcinoma cells, A 549. Nature of the data set: MTT assay, inhibition of cell proliferation, A 549. The class given is cell-based. To be noted: Homo sapiens, A549; 72 hours incubation. The procedure:
as §1
Background: Formazan colour is commonly taken as a measure of viable cells.

Data set [4] deals with colon carcinoma cells, HT 29. Nature of the data set: MTT assay, inhibition of cell proliferation, HT 29. The class given is cell-based. To be noted: Homo sapiens, 72 hours incubation. On the procedure:
as §1

The mark [5] stands for this setting: Table 1, Temp. [°C]: No. 1 25.0, 2 23.0, 3 26.2, 4 25.1, 5 25.2, 6 24.1, 7 24.5, 8 24.2, 9 24.2, 10 25.7, 11 25.8.
[6] abbreviates: Table 2, Temp. [°C]: hydrochloride 25.0, nitrate 23.5, p-toluenesulfonate 23.2, hydrogen (R,R)-tartrate 24.6, free base 24.8.

In the case of `COc1ccc(NC(=O)c2cnc(N3CC(C)(C)NC3=O)nc2N)cc1C(F)(F)F` [Compound 7], the “1 part by mass dissolves in . . . parts of H2 O” value (shortened to “1 part by mass dissolves”) under setting [5] is listed as 554 parts of H2 O.
For the compound `CC1(C)CN(c2ncc(C(=O)Nc3cccc(C(F)(F)F)c3)c(N)n2)C(=O)N1` [imanixil, 4-amino-2-(4,4-dimethylimidazolidin-2-on-1-yl)pyrimidine-5-carboxylic acid N-(3-trifluoromethylphenyl)amide, reference compound], the “Solubility in water (in words)” value is on record as “exceptionally slightly soluble in water”.
Turning to `CN(C(=O)c1cnc(N2CC(C)(C)NC2=O)nc1N)c1cccc(C(F)(F)F)c1.O=C(O)C(O)C(O)C(=O)O` [Hydrogen (R,R)-tartrate, 4-amino-2-(4,4-dimethyl-2-oxo-1-imidazolidinyl)pyrimidine-5-carboxylic acid N-methyl-N-(3-trifluoromethylphenyl)amide hydrogen (R,R)-tartrate], the “1 part by mass dissolves” value under setting [6] is < 9.90 parts of H2 O. This compound displayed a solubility in “physchem” greater than 91 mg/mL.
Turning to `CCCC1(C)CN(c2ncc(C(=O)Nc3cc(C(F)(F)F)ccc3Cl)c(N)n2)C(=O)N1` (stereo not drawn) [Compound 8], under setting [5], the “1 part by mass dissolves” value was 781 parts of H2 O.
In the case of `CC1NC(=O)N(c2ncc(C(=O)Nc3cccc(C(F)(F)F)c3)c(N)n2)C1C` (stereo not drawn) [No. 11, reference compound], the “1 part by mass dissolves” value under setting [5] is 277 parts of H2 O.
As for `CCCC1(C)CN(c2ncc(C(=O)Nc3cccc(C(F)(F)F)c3)c(N)n2)C(=O)N1` (stereo not drawn) [No. 10, reference compound], under setting [5], the “1 part by mass dissolves” value is on record as 255 parts of H2 O and the “Solubility in water: Molarity” value is listed as 8.54 × 10^-3.
Turning to `CC1(C)CN(c2ncc(C(=O)Nc3ccc(Cl)c(C(F)(F)F)c3)c(N)n2)C(=O)N1` [Compound 5], the “1 part by mass dissolves” value under setting [5] is listed as 1055 parts of H2 O.
The same measure, in the same setting: in the case of `CC1(C)CN(c2ncc(C(=O)Nc3cc(C(F)(F)F)ccc3Cl)c(N)n2)C(=O)N1` [Compound 4] it was 217 parts of H2 O.
Turning to `CCCC1(C)CN(c2ncc(C(=O)Nc3ccc(Cl)c(C(F)(F)F)c3)c(N)n2)C(=O)N1` (stereo not drawn) [No. 9, reference compound], under setting [5], the “1 part by mass dissolves” value is 725 parts of H2 O and the “Solubility in water: Concentration in % by weight” value amounted to 0.13 % by weight.
With `CCOC(=O)C(C)(C)Oc1ccc(Cl)cc1` [Clofibrate, reference compound], in the data set with hypercholesterolemia, the “% change compared with control, protein "HDL" d > 1.04” value is reported as -27%; the “% change compared with control, protein LDL” value was “+16%”; the “% change compared with control, protein VLDL” value is reported as -63%; the “% change compared with control, total cholesterol "HDL" d > 1.04” value is listed as “+10%”. Besides, in the data set with hypercholesterolemia, the “% change compared with control, total cholesterol LDL” value was “+16%”; the “% change compared with control, total cholesterol VLDL” value is “+27%”; the “% change compared with control, triglycerides VLDL” value was “+21%”; the “Lipoprotein fraction protein "HDL"” value came to 3920. Besides, in the data set on hypercholesterolemia, the “Lipoprotein fraction protein LDL” value was 1435, the “Lipoprotein fraction protein VLDL” value was found to be 809, the “Lipoprotein fraction total cholesterol "HDL"” value was found to be 648 and the “Lipoprotein fraction total cholesterol LDL” value came to 5434. In addition, in the data set on hypercholesterolemia, the “Lipoprotein fraction total cholesterol VLDL” value amounted to 5924; the “Lipoprotein fraction triglycerides VLDL” value amounted to 1770; the “Serum % change compared with control at the end of treatment, total cholesterol” value is given as “+20%”; the “Serum % change compared with control at the end of treatment, triglycerides” value is recorded as “+26%”. Besides, the “Triglycerides, pool” value in the data set on hypercholesterolemia was 3.68 mmol/L. The “Total cholesterol (x)” value with hypercholesterolemia (mean x) worked out at 880 mg/dL. In the data set on serum lipoproteins, the “% change compared with control, protein LDL” value is recorded as -32%; the “% change compared with control, total cholesterol LDL” value was -31%; the “% change compared with control, total cholesterol VLDL” value is given as -30%; the “% change compared with control, triglycerides VLDL” value was -34%. Further, in data set [1] (100 mg/kg/day, oral, 4 days), the “Triglycerides in serum, % change from fructose control” value was -25%; the “Triglycerides in the VDVL fraction, % change from fructose control” value is -37%; the “Triglycerides in the VDVL fraction, pool n = 10” value is 1.15 mmol/L. Further, the “Triglycerides in serum (x)” value in data set [1] (100 mg/kg/day, oral, 4 days, mean x) is 0.83 mmol/L. The “Inhibitory effect on increase in VLDL triglycerides (in words)” value in data set [1] (dose 100 times higher than 1 mg/kg/day) is “only a slight inhibitory effect”.
In the case of `CC1(C)CN(c2ncc(C(=O)Nc3cccc(C(F)(F)F)c3)c(N)n2)C(=O)N1` [No. 1, 4-amino-2-(4,4-dimethylimidazolidin-2-on-1-yl)pyrimidine-5-carboxylic acid N-(3-trifluoromethylphenyl)amide, reference compound], the IC50 worked out at 0.7 µg/mL (≈ 1.78 µM) in data set [2], 3.4 µg/mL (≈ 8.62 µM) in data set [3] and 4.3 µg/mL (≈ 10.9 µM) in data set [4].
In the case of `COc1ccc(C(F)(F)F)cc1NC(=O)c1cnc(N2CC(C)(C)NC2=O)nc1N` [Compound 6], the “Solubility in water (in words)” value is on record as “sparingly soluble in water”. Moreover, the “1 part by mass dissolves” value under setting [5] was 75 parts of H2 O.
Consider `CC1(C)CN(c2ncc(C(=O)Nc3cccc(C(F)(F)F)c3)c(N)n2)C(=O)N1` [Compound 2], for which, under setting [5], the “Solubility in water: Concentration in % by weight” value is reported as 0.08 % by weight and the “Solubility in water: Molarity” value is recorded as 0.90 × 10^-3.
For the compound `CN(C(=O)c1cnc(N2CC(C)(C)NC2=O)nc1N)c1cccc(C(F)(F)F)c1.O=[N+]([O-])O` [Nitrate, 4-amino-2-(4,4-dimethyl-2-oxo-1-imidazolidinyl)pyrimidine-5-carboxylic acid N-methyl-N-(3-trifluoromethylphenyl)amide nitrate], under setting [6], the “1 part by mass dissolves” value was 8.13 parts of H2 O. In addition, in “physchem”, the solubility turned out to be 110 mg/mL.
Regarding `CC1(C)CN(c2ncc(C(=O)Nc3ccc(F)c(C(F)(F)F)c3)c(N)n2)C(=O)N1` [Compound 3], the “1 part by mass dissolves” value under setting [5] was 703 parts of H2 O.
As to `CN(C(=O)c1cnc(N2CC(C)(C)NC2=O)nc1N)c1cccc(C(F)(F)F)c1.Cc1ccc(S(=O)(=O)O)cc1` [p-Toluenesulfonate, 4-amino-2-(4,4-dimethyl-2-oxo-1-imidazolidinyl)pyrimidine-5-carboxylic aci d N-methyl-N-(3-trifluoromethylphenyl)amide p-toluenesulfonate], the “1 part by mass dissolves” value under setting [6] is listed as 14.44 parts of H2 O. Also, in the data set “physchem”, the concentration in solution (solubility) came to 65 mg/mL.

One may read the solubility as the concentration that dissolves in the medium under given conditions. A low value points to little dissolved substance. By IC50 is commonly meant the concentration that inhibits the measured activity by half. Read a high IC50 as weaker potency.
